Patent publication US20150190346A1, “COMPOSITIONS AND METHODS FOR TREATMENT OF ABNORMAL CELL GROWTH” (VERASTEM, INC., priority 2014, published 2015)
Where two headings read alike, the source gives them in different places.

How the values were obtained:
[1] = Phase I study: safety and tolerability (adverse events) of VS-6063 tablets; format: in vivo, human (healthy male subjects)
Description: In a Phase I, open-label, single center, single dose, partially randomized trial, the safety, bioavailability, and pharmacodynamics of prototype and reference formulations of VS-6063 were investigated in healthy male subjects. The study was comprised of four periods, each of which adhered to the same study design and involved 24 healthy male subjects between 40 and 65 years of age with a body mass index between 18.0 and 35.0 kg/m^2. Following a 28 day screening period, the subjects were admitted to the clinical unit the morning prior to dosing day (Day −1) and were dosed in the morning of Day 1. Subjects in Regimens A and B were administered VS-6063 following an overnight fast of about 10 hours, while subjects in Regimens C and D were administered VS-6063 within 30 minutes of starting a high fat breakfast, which was consumed within 25 minutes. Subjects remained on site until 36 hours after dosing. There was a minimum washout period of 7 days between the administration of each regimen. A follow-up phone call took place 7 to 10 days post final dose in periods 3 and 4 to ensure the ongoing well-being of the subjects.

[2] = male, beagle, dog, in vivo, po
Description: (§1) 4 groups of 1 male beagle dog per group received an oral gavage dose of VS-6063 in various formulations in a 4-session crossover design with a minimum 3-day washout period between dose sessions. In each session, VS-6063, VS-6063-25% SDD in Soluplus/PVP-A, VS-6063-25% physical mixture with Soluplus/PVP-A, and VS-6063-10% SDD in [sequence] L100-55 were administered at a target dose level of 10 mg API/kg. Blood samples (anticoagulant: K2EDTA) were scheduled for collection from each animal prior to dosing and at 0.25, 0.5, 1, 2, 4, 6, 8, 12 and 24 hours after dosing in each dose session. Blood samples were processed for plasma and the plasma was analyzed for VS-6063 by LC-MS/MS. Plasma concentration-time data for individual animals were analyzed to determine the pharmacokinetic profiles of VS-6063.
(§2) 4 groups of 1 male beagle dog per group received an oral gavage dose of VS-6063 in various formulations in a 4-session crossover design with a minimum 3-day washout period between dose sessions. In each session, VS-6063-25% physical mixture with Soluplus/PVP-A and VS-6063-25% SDD in Soluplus/PVP-A were administered at a target dose level of 20 mg API/kg and VS-6063-50% physical mixture with Soluplus/PVP-A was administered at target dose levels of 10 and 20 mg API/kg. Blood samples (anticoagulant: K2EDTA) were scheduled for collection from each animal prior to dosing and at 0.25, 0.5, 1, 2, 4, 6, 8, 12 and 24 hours after dosing in each dose session. Blood samples were processed for plasma and the plasma was analyzed for VS-6063 by LC-MS/MS. Plasma concentration-time data for individual animals were analyzed to determine the pharmacokinetic profiles of VS-6063.
(§3) VS-6063 was formulated (0.934 correction factor) at a target concentration of 10 mg API/mL in 0.5% (w/v) Methocel A4M in water with 0.1% (v/v) Tween 80. VS-6063-25% SDD in Soluplus/PVP-A was formulated (0.25 correction factor) at a target concentration of 10 mg API/mL in 0.5% (w/v) Methocel A4M in water. VS-6063-25% physical mixture with Soluplus/PVP-A was formulated (0.25 correction factor) at a target concentration of 10 mg API/mL in 0.5% (w/v) Methocel A4M in water. VS-6063-10% SDD in [sequence] L100-55 was formulated (0.10 correction factor) at a target concentration of 10 mg API/mL in 0.5% (w/v) Methocel A4M in water.
(§4) VS-6063-25% physical mixture with Soluplus/PVP-A and VS-6063-25% SDD in Soluplus/PVP-A were formulated (0.25 correction factor) at a target concentration of 10 mg API/mL in 0.5% (w/v) Methocel A4M in water. VS-6063-50% Physical mixture with Soluplus/PVP-A was formulated (0.50 correction factor) at target concentrations of 5 mg API/mL and 10 mg API/mL in 0.5% (w/v) Methocel A4M in water.
(§5) 4 groups of 1 male beagle dog per group received an oral gavage dose of VS-6063 in various formulations in a 4-session crossover design with a minimum 3-day washout period between dose sessions. In each session, VS-6063, VS-6063-25% SDD in Soluplus/PVP-A, VS-6063-25% physical mixture with Soluplus/PVP-A and VS-6063-10% SDD in [sequence] […] Food was returned at 4 hours post-dose.
(§6) Prior to dosing, the body weight of each animal was recorded. Doses (rounded to the nearest 0.01 mL) were calculated based on the pretreatment body weight (kg) and a dose volume of 1 mL/kg. Following the oral gavage dose, the gavage tube was flushed with 10 to 20 mL of water prior to removal of the tube. Dosing syringes were weighed immediately prior to and immediately after dosing each animal, and the quantity of formulation administered to each animal was determined from the difference in syringe weights.
(§7) 4 groups of 1 male beagle dog per group received an oral gavage dose of VS-6063 in various formulations in a 4-session crossover design with a minimum 3-day washout period between dose sessions.

in vivo = conditions: male, beagle, dog, po
Description: as §1, §2, §3, §4, §5, §6, §7

In the case of CNC(=O)c1ccc(Nc2ncc(C(F)(F)F)c(NCc3nccnc3N(C)S(C)(=O)=O)n2)cc1 [VS-6063], the “incidence of AEs” value ([1]; Regimen A (200 mg reference, fasted)) is reported as 3 subjects, the “incidence of AEs” value ([1]; Regimen B (100 mg prototype, fasted)) is reported as 2 subjects and the “incidence of AEs” value ([1]; Regimen C (fed)) is reported as 5 subjects. The “incidence of AEs” value ([1]; Regimen D (fed)) was 1 subject, the tolerability ([1]; single dose, fed and fasted, reference and prototype formulations) was “well tolerated” and the “serious or severe adverse events” value ([1]; whole study) was “no serious adverse events (AEs) or severe AEs”. For the same compound, the “total AEs reported” value ([1]; whole study, reported by 9 subjects) was 12 AEs, the Mean AUCinf/Dose [2] was 312 ng·h/mL per mg/kg and the Tmax [2] was 2.50 h. It also gave a Tmax ([2]; 10 mg/kg) of 4 h, a Tmax (in vivo; 10 mg/kg) of 2 h and a half-life (in vivo; 10 mg/kg, t1/2) of about 3.9 h. For the same compound, the Tmax (in vivo) was 2 to 4 h.
